Measurements taken from article PMC6779870, “Structural analysis of fungal pathogenicity-related casein kinase α subunit, Cka1, in the human fungal pathogen Cryptococcus neoformans” (Scientific Reports, 2019).

Biological target: T1, cnCka1 (Cryptococcus neoformans CK2α orthologue, Cka1) (Cryptococcus neoformans, UniProt J9VNH4)
T1 construct: gene CNAG_05694; full-length, Met1–Pro338 (His6-TRX fusion in SPR; tag removed for crystal)
Test: SPR (Biacore […]) and crystal structure at […] Å; also ADP-Glo kinase assay
Assay type: binding

T1 sequence (J9VNH4 entry or part of it): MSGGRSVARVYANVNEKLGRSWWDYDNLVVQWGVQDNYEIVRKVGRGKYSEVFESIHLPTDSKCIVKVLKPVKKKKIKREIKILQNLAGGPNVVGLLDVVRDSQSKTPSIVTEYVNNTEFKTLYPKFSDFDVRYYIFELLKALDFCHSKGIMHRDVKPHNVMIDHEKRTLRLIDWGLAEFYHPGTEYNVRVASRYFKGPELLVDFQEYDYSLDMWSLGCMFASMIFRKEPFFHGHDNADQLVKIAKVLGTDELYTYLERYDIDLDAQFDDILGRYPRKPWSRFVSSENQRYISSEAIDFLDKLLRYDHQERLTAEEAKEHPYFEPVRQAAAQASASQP

## O=C(O)c1ccc2c(c1)nc(Nc1cccc(Cl)c1)c1ccncc12 [CX-4945, 5-(3-chlorophenylamino)benzo[c][2,6]naphthyridine-8-carboxylic acid]
  Kd: 60.1 nM
